Results taken from ChEMBL document CHEMBL1773066, “Design, synthesis, biological activity, and ADME properties of pyrazolo[3,4-d]pyrimidines active in hypoxic human leukemia cells: a lead optimization study” (J Med Chem, 2011).
pIC50, pKi: −log10 of the molar value. ≈ marks a conversion by molar mass, not a printed value. Calls of active or inactive are those of the source. The calls are words filed in the database; no cut-off is given here.

Legend:
[1] = Solubility of the compound in water at pH 7.4; assay type: physicochemical
[2] = Metabolic stability in human liver microsomes assessed as parent compound remaining after 60 mins by LC-MS analysis; assay type: ADME, Microsome; conditions: read-out: Stability
[3] = target: T1, Signal transducer and activator of transcription 5A (Homo sapiens) (UniProt P42229); experiment: Inhibition of STAT5 phosphorylation in human MEG-01 cells under normoxic condition after 3 hrs by Western blotting; assay type: cell-based
T1 sequence (whole entry): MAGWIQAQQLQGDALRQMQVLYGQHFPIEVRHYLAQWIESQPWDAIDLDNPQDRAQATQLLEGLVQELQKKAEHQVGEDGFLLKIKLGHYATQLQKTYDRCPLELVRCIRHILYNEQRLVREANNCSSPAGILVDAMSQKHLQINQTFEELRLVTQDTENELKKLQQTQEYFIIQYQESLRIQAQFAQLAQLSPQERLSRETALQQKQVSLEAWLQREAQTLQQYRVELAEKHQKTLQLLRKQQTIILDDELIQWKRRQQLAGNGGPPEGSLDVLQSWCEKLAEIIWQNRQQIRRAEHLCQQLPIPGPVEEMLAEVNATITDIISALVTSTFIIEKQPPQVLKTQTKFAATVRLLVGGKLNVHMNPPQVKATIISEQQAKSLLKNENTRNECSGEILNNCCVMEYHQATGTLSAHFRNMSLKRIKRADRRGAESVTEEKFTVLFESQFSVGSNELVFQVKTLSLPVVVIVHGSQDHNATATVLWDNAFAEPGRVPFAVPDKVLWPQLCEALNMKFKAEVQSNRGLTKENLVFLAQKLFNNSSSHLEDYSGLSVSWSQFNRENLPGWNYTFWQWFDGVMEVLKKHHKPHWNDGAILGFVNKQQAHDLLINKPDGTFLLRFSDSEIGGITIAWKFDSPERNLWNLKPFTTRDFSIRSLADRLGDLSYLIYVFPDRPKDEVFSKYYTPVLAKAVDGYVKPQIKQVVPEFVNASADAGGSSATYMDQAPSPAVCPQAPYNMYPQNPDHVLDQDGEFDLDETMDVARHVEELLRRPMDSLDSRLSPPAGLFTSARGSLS

[4] = target: T1, Signal transducer and activator of transcription 5A (Homo sapiens); experiment: Inhibition of STAT5 phosphorylation in human MEG-01 cells under hypoxic condition after 3 hrs by Western blotting; assay type: cell-based
[5] = target: T1, Signal transducer and activator of transcription 5A (Homo sapiens); experiment: Inhibition of STAT5 phosphorylation in human KU812 cells under normoxic condition after 3 hrs by Western blotting; assay type: cell-based
[6] = target: T1, Signal transducer and activator of transcription 5A (Homo sapiens); experiment: Inhibition of STAT5 phosphorylation in human KU812 cells under hypoxic condition after 3 hrs by Western blotting; assay type: cell-based
[7] = target: T1, Signal transducer and activator of transcription 5A (Homo sapiens); experiment: Inhibition of STAT5 phosphorylation in human K562 cells under normoxic condition after 3 hrs by Western blotting; assay type: cell-based
[8] = target: T1, Signal transducer and activator of transcription 5A (Homo sapiens); experiment: Inhibition of STAT5 phosphorylation in human K562 cells under hypoxic condition after 3 hrs by Western blotting; assay type: cell-based
[9] = test system: K562; experiment: cells; conditions: Homo sapiens, K562, 72 h
Description: Antiproliferative activity against human K562 cells under normoxic condition after 72 hrs by using CyQUANT GR dye

[10] = test system: MEG-01; experiment: cells; conditions: Homo sapiens, MEG-01, 72 h
Description: Antiproliferative activity against human MEG01 cells under normoxic condition after 72 hrs by using CyQUANT GR dye

[11] = Apparent permeability of the compound at pH 7.4 by PAMPA assay; assay type: ADME
[12] = test system: K562; experiment: Induction of apoptosis in human K562 cells assessed as caspase-3 activity at 10 uM under normoxic condition after 72 hrs by fluorescence microplate reader; assay type: functional, cell-based
[13] = test system: K562; experiment: Induction of apoptosis in human K562 cells assessed as caspase-3 activity at 10 uM under hypoxic condition after 72 hrs by fluorescence microplate reader; assay type: functional, cell-based
[14] = test system: K562; experiment: Induction of apoptosis in human K562 cells assessed as caspase-3 mediated cleavage of PARP level at 10 uM after 72 hrs under hypoxic condition by immunoblot analysis; assay type: functional, cell-based
[15] = Cytotoxicity against mouse BA/F3 cells expressing p210Bcr-Abl E255K mutant; assay type: functional; conditions: BaF3, read-out: LD50 (the source's name)
[16] = Cytotoxicity against mouse BA/F3 cells expressing p210Bcr-Abl Y253F mutant; assay type: functional; conditions: BaF3, read-out: LD50 (the source's name)
[17] = Cytotoxicity against mouse BA/F3 cells expressing p210Bcr-Abl T315I mutant; assay type: functional; conditions: BaF3, read-out: LD50 (the source's name)
[18] = Cytotoxicity against mouse BA/F3 cells expressing wild type p210Bcr-Abl; assay type: functional; conditions: BaF3, read-out: LD50 (the source's name)
[19] = test system: K562; experiment: Induction of HIF1alpha expression in human K562 cells under hypoxic condition assessed as HIF1alpha accumulation after 3 hrs by Western blotting; assay type: functional, cell-based
[20] = cells; conditions: Homo sapiens, KU812, 72 h
Description: Antiproliferative activity against human KU812 cells under normoxic condition after 72 hrs by using CyQUANT GR dye

[21] = test system: K562; experiment: cells; conditions: Homo sapiens, K562, 72 h; remark: listed apart in the source
Description: Antiproliferative activity against human K562 cells under hypoxic condition after 72 hrs by using CyQUANT GR dye

[22] = test system: MEG-01; experiment: cells; conditions: Homo sapiens, MEG-01, 72 h; remark: listed apart in the source
Description: Antiproliferative activity against human MEG01 cells under hypoxic condition after 72 hrs by using CyQUANT GR dye

[23] = cells; conditions: Homo sapiens, KU812, 72 h; remark: listed apart in the source
Description: Antiproliferative activity against human KU812 cells under hypoxic condition after 72 hrs by using CyQUANT GR dye

[24] = test system: K562; experiment: Inhibition of carbonic anhydrase 9 mRNA expression in human K562 cells under normoxic condition at 10 uM after 72 hrs by quantitative RT-PCR analysis; assay type: functional, cell-based
[25] = test system: K562; experiment: Inhibition of carbonic anhydrase 9 mRNA expression in human K562 cells under hypoxic condition at 10 uM after 72 hrs by quantitative RT-PCR analysis; assay type: functional, cell-based
[26] = target: Proto-oncogene tyrosine-protein kinase Src (Homo sapiens, UniProt P12931)
Description: Inhibition of human recombinant c-Src by filter-binding assay

[27] = target: Tyrosine-protein kinase ABL1 (Homo sapiens, UniProt P00519)
Sequence of Tyrosine-protein kinase ABL1 (P00519 whole entry): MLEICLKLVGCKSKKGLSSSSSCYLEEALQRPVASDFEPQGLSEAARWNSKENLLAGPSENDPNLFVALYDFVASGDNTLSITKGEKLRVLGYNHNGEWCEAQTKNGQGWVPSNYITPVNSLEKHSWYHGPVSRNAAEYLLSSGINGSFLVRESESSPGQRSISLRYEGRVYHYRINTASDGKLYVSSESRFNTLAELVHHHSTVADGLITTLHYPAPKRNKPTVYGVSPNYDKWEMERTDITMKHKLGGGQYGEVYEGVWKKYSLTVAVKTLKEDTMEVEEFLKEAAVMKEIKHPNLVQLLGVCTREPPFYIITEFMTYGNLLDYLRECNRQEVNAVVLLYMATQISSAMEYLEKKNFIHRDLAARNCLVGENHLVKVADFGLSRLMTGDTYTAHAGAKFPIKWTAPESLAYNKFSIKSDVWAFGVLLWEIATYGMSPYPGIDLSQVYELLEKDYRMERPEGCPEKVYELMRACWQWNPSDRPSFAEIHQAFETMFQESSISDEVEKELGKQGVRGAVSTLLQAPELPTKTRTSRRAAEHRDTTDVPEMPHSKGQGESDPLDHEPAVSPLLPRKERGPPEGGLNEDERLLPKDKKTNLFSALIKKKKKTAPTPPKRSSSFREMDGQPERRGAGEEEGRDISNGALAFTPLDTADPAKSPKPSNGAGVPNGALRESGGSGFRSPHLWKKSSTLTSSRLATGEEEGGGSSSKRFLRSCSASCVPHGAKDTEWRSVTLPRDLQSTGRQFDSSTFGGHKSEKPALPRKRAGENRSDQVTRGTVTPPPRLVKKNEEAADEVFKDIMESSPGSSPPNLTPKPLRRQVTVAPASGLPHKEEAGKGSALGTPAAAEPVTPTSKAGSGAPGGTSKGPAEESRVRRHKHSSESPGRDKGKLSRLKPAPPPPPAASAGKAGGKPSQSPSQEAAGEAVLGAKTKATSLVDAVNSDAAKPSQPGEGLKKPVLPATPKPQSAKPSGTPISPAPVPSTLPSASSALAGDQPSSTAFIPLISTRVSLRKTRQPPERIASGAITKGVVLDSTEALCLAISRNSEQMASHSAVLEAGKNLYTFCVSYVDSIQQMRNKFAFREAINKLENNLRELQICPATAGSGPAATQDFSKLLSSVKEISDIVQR
Description: Inhibition of human recombinant c-Abl by filter-binding assay

Sequence of Proto-oncogene tyrosine-protein kinase Src (P12931 2-536 limits assumed): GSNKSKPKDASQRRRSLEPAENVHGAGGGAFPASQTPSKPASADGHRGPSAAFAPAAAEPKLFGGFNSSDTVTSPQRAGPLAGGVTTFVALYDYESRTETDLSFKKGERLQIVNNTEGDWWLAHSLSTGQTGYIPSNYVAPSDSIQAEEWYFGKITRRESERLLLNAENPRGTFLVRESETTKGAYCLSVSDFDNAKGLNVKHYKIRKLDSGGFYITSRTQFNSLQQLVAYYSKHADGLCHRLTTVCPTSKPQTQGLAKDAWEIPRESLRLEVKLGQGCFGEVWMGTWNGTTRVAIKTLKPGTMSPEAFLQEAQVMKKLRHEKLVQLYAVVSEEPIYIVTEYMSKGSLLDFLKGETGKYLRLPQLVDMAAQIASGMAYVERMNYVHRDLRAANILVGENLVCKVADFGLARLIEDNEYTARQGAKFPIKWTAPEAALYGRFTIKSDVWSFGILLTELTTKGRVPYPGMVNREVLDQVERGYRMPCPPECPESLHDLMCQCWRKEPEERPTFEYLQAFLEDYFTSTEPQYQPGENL

SMILES	solubility [1] [µg/mL]	remaining at 1 h [2] [%]	inhibition [3]	inhibition [4]	inhibition [5]	inhibition [6]	inhibition [7]	inhibition [8]	pIC50 [9]	pIC50 [10]	Papp [11] [×10⁻⁶ cm/s]	pIC50 [20]	pIC50 [21]	pIC50 [22]	other results
Fc1ccc(CNc2ncnc3c2cnn3CC(Cl)c2ccc(F)cc2)cc1 (stereo not drawn)	< 0.04	82	–	–	–	–	–	–	–	–	11	–	–	–	–
Fc1ccc(CNc2ncnc3c2cnn3CC(Cl)c2ccc(Cl)cc2)cc1 (stereo not drawn)	< 0.04	94	Active	Active	Active	Active	Active	Active	5.04	5.21	–	5.09	5.55	5.21	Activity [12]: Active; Activity [13]: Active; Activity [14]: Active; CC50 [15]: 700 nM; CC50 [16]: 700 nM; CC50 [17]: 700 nM; CC50 [18]: 700 nM; Activity [19]: inactive; pIC50 [23]: 4.88
Fc1ccc(C(Cl)Cn2ncc3c(NCc4ccccn4)ncnc32)cc1 (stereo not drawn)	–	–	–	–	–	–	–	–	4.43	4.62	–	4.39	–	–	–
Fc1ccc(C(Cl)Cn2ncc3c(NCc4ccncc4)ncnc32)cc1 (stereo not drawn)	–	–	–	–	–	–	–	–	4.44	4.43	–	4.25	–	–	–

Further lines, with some results ahead:

solubility [1] [µg/mL]	remaining at 1 h [2] [%]	inhibition [3]	inhibition [4]	inhibition [5]	inhibition [6]	inhibition [7]	inhibition [8]	pIC50 [9]	pIC50 [10]	Papp [11] [×10⁻⁶ cm/s]	pIC50 [20]	pIC50 [21]	pIC50 [22]	SMILES	other results
0.1 (≈ 0.189 µM)	95	Active	Active	Active	Active	Active	Active	5.35	5.21	–	–	–	–	Clc1cccc(Nc2nc(SCCN3CCOCC3)nc3c2cnn3CC(Cl)c2ccccc2)c1 (stereo not drawn)	–
0.13 (≈ 0.277 µM)	90	Active	Active	Active	Active	Active	Active	4.91	5.11	14.8	5.66	5.34	4.82	Clc1cccc(Nc2nc(N3CCOCC3)nc3c2cnn3CC(Cl)c2ccccc2)c1 (stereo not drawn)	Activity [12]: Active; Activity [13]: Active; Activity [14]: Active; inhibition [24]: Active; inhibition [25]: Active; Activity [19]: inactive; pKi [26]: 5.12; pKi [27]: 6.41; pIC50 [23]: 4.79
0.4 (≈ 0.999 µM)	84	–	–	–	–	–	–	5.64	4.89	2.6	–	5.09	4.47	OCCNc1nc(NCCc2ccccc2)c2cnn(/C=C\c3ccccc3)c2n1	pKi [26]: 5.62; pKi [27]: 6.66
